# Values joined by “and” are separate entries in the source; they are usually repeats but may differ in a detail not shown here. Identical values can stand only once.
# Experiments:
# hA2BAR = hA2BAR (Homo sapiens (Human), UniProt P29275); assay: Effect on NECA-induced cyclic AMP accumulation at A2B receptor; also: NECA (150 nM)-induced cyclic AMP accumulation; assay type: cell-based; conditions: read-out: hA2BAR % inhib. at 10 μM
# human A3ARs = human A3ARs (Homo sapiens (Human), UniProt P0DMS8); assay: Dissociation kinetics of [125I]I-AB-MECA from human A3ARs; assay type: binding
# Sequence of human A3ARs (P0DMS8 whole entry): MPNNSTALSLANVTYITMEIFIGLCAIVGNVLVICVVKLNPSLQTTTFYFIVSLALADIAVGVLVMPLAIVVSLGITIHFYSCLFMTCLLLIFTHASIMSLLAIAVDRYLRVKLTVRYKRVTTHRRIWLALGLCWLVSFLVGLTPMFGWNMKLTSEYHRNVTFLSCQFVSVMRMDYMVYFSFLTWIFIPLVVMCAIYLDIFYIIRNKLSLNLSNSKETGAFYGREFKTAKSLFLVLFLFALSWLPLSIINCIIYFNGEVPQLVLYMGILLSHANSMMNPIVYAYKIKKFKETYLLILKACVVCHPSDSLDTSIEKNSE
# Description: The dissociation of [^125I]I-AB-MECA was measured as follows. Membranes (20 μg) were preincubated at 25° C. with 0.5 nM [^125I]I-AB-MECA, in a total volume of 100 μl of Tris-HCl buffer (50 mM, pH 8.0) containing 10 mM MgCl2, and 1 mM EDTA for 60 min. The dissociation was then initiated by the addition of 3 μM Cl-IB-MECA with or without allosteric modulators. The time course of dissociation of total binding was measured by rapid filtration at appropriate time intervals. Nonspecific binding was measured after 60-min incubation in the presence of 3 μM Cl-IB-MECA. Further assay was as described above.
# hA3AR = hA3AR (Homo sapiens (Human), UniProt P0DMS8); assay: GTPγS binding at hA3AR; assay type: biochemical
# Sequence of hA3AR (P0DMS8 whole entry): as above
# Sequence of hA2BAR (P29275 whole entry): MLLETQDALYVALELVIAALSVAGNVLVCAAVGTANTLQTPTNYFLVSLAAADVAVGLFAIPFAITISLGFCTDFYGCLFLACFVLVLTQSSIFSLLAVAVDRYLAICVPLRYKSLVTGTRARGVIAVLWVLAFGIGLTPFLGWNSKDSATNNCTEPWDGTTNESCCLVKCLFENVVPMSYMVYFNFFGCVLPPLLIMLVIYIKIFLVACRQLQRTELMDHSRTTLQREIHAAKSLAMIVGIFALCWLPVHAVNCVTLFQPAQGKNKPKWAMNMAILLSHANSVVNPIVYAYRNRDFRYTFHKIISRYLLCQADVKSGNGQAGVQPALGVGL
smiles,measurement,setting,value
"Clc1ccc(Nc2nc3ccccc3c3[nH]c(C4CCCCC4)nc23)cc1Cl [Compound 45, N-(3,4-Dichloro-phenyl)-2-cyclohexyl-1H-imidazo[4,5-c]quinolin-4-amine]",inhibition at 10 µM,hA2BAR,-5.6%
same,activity at 10 µM,"human A3ARs; 0.5 h, % decrease of dissociation at 30 min, residual binding of [125I]AB-MECA after 30 min = 100%, Table 2, read-out: hA3AR Ag. Dissociation at 10 μM",173 ± 5%
same,hA3R Ag. Dissociation (%) at 10 μM,"human A3ARs; % decrease of [125I]I-AB-MECA dissociation at 30 min (control = 100%), Table 3",173 ± 5%
same,Enhancement of GTPγS binding (%) at hA3AR at 10 μM,"hA3AR; 10 μM Cl-IB-MECA alone = 100%, Table 3",194 ± 11% and 177%
same,Relative efficacy (%) at hA3AR at 10 μM (GTPγS binding) in absence of agonist,"hA3AR; absence of agonist, 10 μM Cl-IB-MECA alone = 100%",6%
same,Enhancement of GTP[…]S binding (%) at hA3AR at 10 μM,"hA3AR; compared to maximal effect by 2-Cl-IB-MECA alone (control), Table 4",194 ± 11%
